Experimental data from patent EP4471048A1, “PEPTIDE INHIBITORS OF INTERLEUKIN-23 RECEPTOR” (Zealand Pharma A/S, priority 2023, dated 2024).
Where two headings read alike, the source gives them in different places. *1 amine or outer side, *2 acyl side, *3 side chain or, on linkers, in order; H or OH if unused. Where a SMILES comes first, the peptide text is derived from it. Bridges are numbered along the chain shown (N, C = ends). [ ]: non-standard residue; d: D form. The star is where a group is joined. hAad = O=C([C@H](CCCCC(=O)[*:3])N[*:1])[*:2]; 2Nal = N[C@@H](Cc1ccc2ccccc2c1)C(=O)O; AEF = NCCOc1ccc(C[C@H](N)C(=O)O)cc1; X1 = O=C(Cc1ccc(CN[*:1])cc1)[*:2]; 3Pal = N[C@@H](Cc1cccnc1)C(=O)O; Aad = N[C@@H](CCCC(=O)O)C(=O)O; αMeL = CC(C)C[C@](C)(N)C(=O)O; CH2COCH2 = O=C(C[*:1])C[*:2]; dOrn = NCCC[C@@H](N)C(=O)O; dDab = NCC[C@@H](N)C(=O)O; Pyrrolidide = C1CCN(*)C1; Dab = NCC[C@H](N)C(=O)O; X6 = O=C(CN[*:2])[*:1]

Assays:
[1] = biological target: IL-23 mediated signalling (Homo sapiens, UniProt Q5VWK5); assay: Functional inhibition of IL-23 mediated STAT3 signalling (phospho-STAT3 MSD) in DB cells; type: cell-based; details: DB cells, hIL-23 at EC80; for Emax: read-out: hIL-23 (pSTAT3) antagonist % inhibition
Text: Upon binding of IL-23, the IL-23R forms a heterodimer signalling complex together with IL-12R β1, which through the JAK2/STAT3 pathway promotes phosphorylation of STAT3 to form phospho-STAT3.
For compounds tested in this assay, the response was normalized relative to control values to calculate the IC50 and maximal inhibitory response from a concentration response curve of the compound in presence of a fixed concentration of human IL-23.
The assay procedure was as follows. […] Following preincubation of the DB cells with inhibitor for 15 min in a cell incubator (37 °C, 5% CO2), 20 µL of the prepared 3X the EC80 of hIL-23 solution was added to each well and incubated for 90 min in a cell incubator (37 °C, 5% CO2). For some wells buffer only or IL-23 only corresponding to the EC80 was added to obtain readouts needed for normalization. To terminate the assay, the plate was spun at 1000 G for 5 min to pellet cells, the supernatant removed using an 8-channel manual pipette, and then added 50 µL/well Complete Lysis Buffer from the MSD STAT3 kit (Cat# K150SVD, Mesoscale) to the cell pellet. To completely lyse cells to release phospho-STAT3 for detection, the plate was shaken for 10 min at room temperature (500 rpm) sealed with aluminium foil and placed at -80 °C for a minimum of 15 min. Detection of the phospho-STAT3 level in the cell lysate from the individual wells was determined using the MSD STAT3 kit (Cat# K150SVD, Mesoscale) and read on a Meso QuickPlex SQ 120 plate reader (Mesoscale).
For data analysis raw data counts from the Meso QuickPlex SQ 120 plate reader were normalized relative to the response by the EC80 of h1L-23 alone (no compound added) and the buffer level. Compound potency (IC50) and maximal inhibitory response (% inhibition) were estimated by computer-aided curve fitting using a 4-parameter logistic (4PL) nonlinear model. […] Table 3-2: hIL-23 (pSTAT3) antagonist IC50 and % inhibition

human IL-23R = biological target: T1, human IL-23R (Homo sapiens, UniProt Q5VWK5); assay: biochemical; details: for Emax: read-out: % displacement (hIL-23R NIuc)
T1 sequence (Q5VWK5 22-629): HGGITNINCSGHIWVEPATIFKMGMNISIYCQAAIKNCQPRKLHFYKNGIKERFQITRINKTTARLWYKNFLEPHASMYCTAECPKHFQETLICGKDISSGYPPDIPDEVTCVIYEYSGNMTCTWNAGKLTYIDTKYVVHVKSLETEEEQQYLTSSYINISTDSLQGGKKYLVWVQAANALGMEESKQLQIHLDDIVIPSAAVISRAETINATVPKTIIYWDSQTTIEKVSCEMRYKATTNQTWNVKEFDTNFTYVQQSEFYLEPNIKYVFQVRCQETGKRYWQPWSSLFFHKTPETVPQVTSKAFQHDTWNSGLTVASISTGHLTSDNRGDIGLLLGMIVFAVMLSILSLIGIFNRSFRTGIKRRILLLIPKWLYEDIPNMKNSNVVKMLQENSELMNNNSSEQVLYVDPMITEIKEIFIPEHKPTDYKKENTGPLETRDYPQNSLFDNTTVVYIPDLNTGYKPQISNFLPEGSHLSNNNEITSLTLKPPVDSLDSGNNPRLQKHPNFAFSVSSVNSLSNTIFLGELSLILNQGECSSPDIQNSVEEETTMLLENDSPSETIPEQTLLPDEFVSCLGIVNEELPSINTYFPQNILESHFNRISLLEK
In short: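 BRET displacement of a TAMRA-labelled reference compound from N-terminal Nanoluc-IL-23R fusion protein in membranes from stably transfected HEK293 cells. Incubation 2 h at room temperature, then Nanoluc substrate was added and the TAMRA/Nanoluc ratio read. IC50 and maximal displacement came from 4-parameter logistic fits.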

[2] = Table 3-2, maximal inhibitory response
[3] = Table 3-2, read-out: hIL-23 (pSTAT3) antagonist IC50

Compound	Emax [1, 2]	% displacement (hIL-23R NIuc) (human IL-23R)	IC50 (human IL-23R)	IC50 [1, 3]	Ki (human IL-23R)	IC50 ([1]; SAR tables 2-1 to 2-7, read-out: IC50 (pSTAT3))	Emax (human IL-23R)	hIL-23 (pSTAT3) antagonist % inhibition [1, 2]	% displacement (hIL-23R NIuc) (human IL-23R; Table 3-1, maximal displacement of TAMRA-labelled peptide)
CC(C)C[C@]1(C)NC(=O)[C@H](Cc2ccc3ccccc3c2)NC(=O)[C@H](Cc2ccc(OCCN)cc2)NC(=O)[C@@H]2CCC(=O)N[C@H](CCCNC(=O)CCC[C@@H](C(=O)N[C@@H](CCN)C(=O)N[C@@H](Cc3cccnc3)C(N)=O)NC1=O)C(=O)N[C@@H]([C@@H](C)O)C(=O)N[C@@H](C(C)C)C(=O)N[C@@H](Cc1c[nH]c3ccccc13)C(=O)N[C@@H](CCC(N)=O)C(=O)N2 [Compound 6, [{d}Orn](1c)(6c)^†TVWQE(6c)[Y(2-aminoethoxy)][2-Nal][2-Me-Leu][hGlu](1c)[Dab][3-(3-Pyridyl)-Ala]-[NH2]] ([dOrn]TVWQE[AEF][2Nal][αMeL][Aad][Dab][3Pal]-NH2; lactam 1-10, N-6)	104%	104%	0.022 nM						
CC(=O)N[C@H]1CCSC[C@@H](C(=O)N[C@@H](Cc2ccc(OCCN)cc2)C(=O)N[C@@H](Cc2c[nH]c3ccccc23)C(=O)N[C@@](C)(CCCCN)C(=O)N[C@@H](CCC(=O)O)C(=O)N[C@@H](CC(N)=O)C(=O)NCC(N)=O)NC(=O)[C@H](CCC(N)=O)NC(=O)[C@H](Cc2c[nH]c3ccccc23)NC(=O)[C@H]([C@@H](C)O)NC(=O)[C@H](CCC(N)=O)NC1=O [Compound C, [Ac]-[Abu](16i)QTWQC(16i)[Y(2-aminoethoxy)]W[2-Me-Lys]ENG-[NH2], reference compound]	99%	102%	2.6 nM	13 nM	2.11 nM				
CC(C)C[C@]1(C)NC(=O)[C@H](Cc2ccc3ccccc3c2)NC(=O)[C@H](Cc2ccc(OCCN)cc2)NC(=O)[C@@H]2CCC(=O)N[C@H](CCNC(=O)CCCC[C@@H](C(=O)N[C@@H](CCN)C(=O)N[C@@H](Cc3cccnc3)C(N)=O)NC1=O)C(=O)N[C@@H]([C@@H](C)O)C(=O)N[C@@H](C(C)C)C(=O)N[C@@H](Cc1c[nH]c3ccccc13)C(=O)N[C@@H](CCC(N)=O)C(=O)N2 [Compound 7, [{d}Dab](1c)(6c)^†TVWQE(6c)[Y(2-aminoethoxy)][2-Nal][2-Me-Leu][2-Amino-6-carboxyhexanoyl](1 c)[Dab][3-(3-Pyridyl)-Ala]-[NH2]] ([dDab]TVWQE[AEF][2Nal][αMeL][hAad][Dab][3Pal]-NH2; lactam 1-10, N-6)	99%	104%	0.017 nM						
CC(=O)N[C@H]1CCCCNC(=O)CC[C@@H](C(=O)N[C@@H](CCCNC(=N)N)C(N)=O)NC(=O)[C@H](CC(C)C)NC(=O)[C@H](Cc2ccc3ccccc3c2)NC(=O)[C@H](Cc2c[nH]c3ccccc23)NC(=O)[C@@H]2CSCC(=O)CSC[C@H](NC(=O)[C@H](CO)NC1=O)C(=O)N[C@@H](Cc1c[nH]c3ccccc13)C(=O)N[C@@H](CCC(N)=O)C(=O)N2 [Ref 18, [Ac]-K(1c)SC(2a)WQC(2a)W[2-Nal]LE(1c)R-[NH2], reference compound] (HELM PEPTIDE1{[ac].K.S.C.W.Q.C.W.[O=C([C@H](Cc1ccc2ccccc2c1)N[*:1])[*:2]].L.E.R.[am]}|CHEM1{[O=C(C[*:1])C[*:2]]}$PEPTIDE1,PEPTIDE1,2:R3-11:R3|PEPTIDE1,CHEM1,4:R3-1:R1|PEPTIDE1,CHEM1,7:R3-1:R2$$$V2.0)	97%	103%	3.5 nM	18 nM	2.85 nM				
CC(C)C[C@]1(C)NC(=O)[C@H](Cc2ccc3ccccc3c2)NC(=O)[C@H](Cc2ccc(OCCN)cc2)NC(=O)[C@@H]2CSCC(=O)CSC[C@H](NC(=O)[C@H](CO)NC(=O)Cc3ccc(cc3)CNC(=O)CC[C@@H](C(=O)N[C@@H](CCCNC(=N)N)C(N)=O)NC1=O)C(=O)N[C@@H](Cc1c[nH]c3ccccc13)C(=O)N[C@@H](CCC(N)=O)C(=O)N2 [Ref 52, [4-Aminomethyl-phenylacetyl](1c)*SC(2a)WQC(2a)[Y(2-aminoethoxy)][2-Nal][2-Me-Leu]E(1c)R-[NH2], reference compound] ([X1]SCWQC[AEF][2Nal][αMeL]ER-NH2; linker 3-6 via CH2COCH2; lactam N-10)	103%	100%	0.058 nM	7.8 nM	0.0475 nM				
CC(C)C[C@]1(C)NC(=O)[C@H](Cc2ccc3ccccc3c2)NC(=O)[C@H](Cc2ccc(OCCN)cc2)NC(=O)[C@@H]2CCC(=O)N[C@@H](CCCCNC(=O)CC[C@@H](C(=O)N[C@@H](CCN)C(=O)N[C@@H](Cc3cccnc3)C(N)=O)NC1=O)C(=O)N[C@@H]([C@@H](C)O)C(=O)N[C@@H](C(C)C)C(=O)N[C@@H](Cc1c[nH]c3ccccc13)C(=O)N[C@@H](CCC(N)=O)C(=O)N2 [Compound 2, K(1c)(6c)^†TVWQE(6c)[Y(2-aminoethoxy)][2-Nal][2-Me-Leu]E(1c)[Dab][3-(3-Pyridyl)-Ala]-[NH2]] (KTVWQE[AEF][2Nal][αMeL]E[Dab][3Pal]-NH2; lactam 1-10, N-6)	99%		0.021 nM			0.11 nM	100%		
CC(C)C[C@]1(C)NC(=O)[C@H](Cc2ccc3ccccc3c2)NC(=O)[C@H](Cc2ccc(OCCN)cc2)NC(=O)[C@@H]2CCNC(=O)CC[C@H](NC(=O)[C@H](CO)NC(=O)Cc3ccc(cc3)CNC(=O)CC[C@@H](C(=O)N[C@@H](CCN)C(N)=O)NC1=O)C(=O)N[C@@H](Cc1c[nH]c3ccccc13)C(=O)N[C@@H](CCC(=O)N1CCCC1)C(=O)N2 [Ref 146, [4-Aminomethyl-phenylacetyl](1c)*SE(2c)W[Q(pyrrolidin)][Dab](2c)[Y(2-aminoethoxy)][2-Nal][2-Me-Leu]E(1c)[Dab]-[NH2], reference compound] ([X1]SEWE(Pyrrolidide)[Dab][AEF][2Nal][αMeL]E[Dab]-NH2; lactam 3-6, N-10)								98%	105%
CNC(=O)[C@H](Cc1cccnc1)NC(=O)[C@H](CCN)NC(=O)[C@@H]1CCC(=O)NCC(=O)NCCCC[C@@H]2NC(=O)CC[C@H](NC(=O)[C@H](CCC(N)=O)NC(=O)[C@H](Cc3c[nH]c4ccccc34)NC2=O)C(=O)N[C@@H](Cc2ccc(OCCN)cc2)C(=O)N[C@@H](Cc2ccc3ccccc3c2)C(=O)N[C@@](C)(CC(C)C)C(=O)N1 [Compound 46, [K(G)](1c)(6c)^†WQE(6c)[Y(2-aminoethoxy)][2-Nal][2-Me-Leu]E(1c)[Dab][3-(3-Pyridyl)-Ala]-[NHMe]] (KWQE[AEF][2Nal][αMeL]E[Dab][3Pal]-NHMe; linker 1-8 via X6; lactam N-4)	102%		7.3 nM				104%		
CC[C@H](C)[C@@H]1NC(=O)[C@@H]2CCCCNC(=O)CC[C@@H](C(=O)N[C@@H](CCN)C(=O)N[C@@H](Cc3cccnc3)C(N)=O)NC(=O)C(C)(C)NC(=O)[C@H](Cc3ccc4ccccc4c3)NC(=O)[C@H](Cc3ccc(C)cc3)NC(=O)[C@H](CCC(=O)N2)NC(=O)[C@H](CCC(N)=O)NC(=O)[C@H](Cc2c[nH]c3ccccc23)NC(=O)[C@H](C(C)C)NC1=O [Compound 17, K(1c)(6c)^†IVWQE(6c)[F(4-Me)][2-Nal][Aib]E(1c)[Dab][3-(3-Pyridyl)-Ala]-[NH2]]	99%			2.9 nM			107%		
